Values of other authors in patent publication US11903921B2 (priority 2020, dated 2024).

Columns and labels:
SEB-exposed mice = details: mouse, in vivo
[1] = system: LPS-induced acute pulmonary inflammation; details: 100 μmol/kg bodyweight, mouse
ovalbumin-induced asthma = details: through inhibition of NF-κB activity
hyaluronan = details: inhibitor of hyaluronan; compared with 4-MU
[2] = animal and human studies; orally in water, inhaled, intravenous
[3] = system: influenza and respiratory tract infections; details: prophylaxis and treatment

In the case of `Cc1cc(=O)oc2cc(O)ccc12` [4-MU, 7-Hydroxy-4-methyl-2H-chromen-2-one], the SEB-induced lung permeability (SEB-exposed mice) is given as “reduction in SEB-induced lung permeability”, the cytokine production (SEB-exposed mice) is given as “reduced cytokine production” and the “expression of HAS-1, HAS-2, and HAS-3” value (SEB-exposed mice) is given as “reduces expression of HAS-1, HAS-2, and HAS-3”. The “levels of HA in the lungs” value (SEB-exposed mice) was “reduced levels of HA”.

For `O=c1c(O)c(-c2ccc(O)c(O)c2)oc2cc(O)ccc12` [Fisetin], the “anti-inflammatory effects compared with dexamethasone” value [1] is given as “more pronounced than dexamethasone”, the measures of inflammation [1] is given as “significantly reduced numerous measures of inflammation” and the “efficacy in ovalbumin-induced asthma” value (ovalbumin-induced asthma) is given as “effective”. The “expression of T(H)2-type cytokines (IL-4, IL-13, and IL-5)” value (basophils) was “powerfully suppress” and the “effective dose relative to 4-MU” value (hyaluronan) was 10 times lower.

For `[HH]` [Molecular hydrogen], the harmlessness [2] is given as “essentially harmless”.

For `CCCCCCCCCCCCCCCC(=O)NCCO` [PEA, palmitoylethanolamide], the “efficacy and safety in influenza and respiratory tract infections” value [3] is listed as “effective and safe”.
